Test results as given in ChEMBL document CHEMBL1201862, “PubChem BioAssay data set” (2004).
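Method: 48-hour compound exposure of cells in 96-well plates, five concentrations, linear interpolation of endpoints. GI50: concentration for 50% inhibition of growth.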 The source made the active and inactive calls. Rule as the data show it: active = GI50 up to about 1.1 µM and inactive = higher.

Assays:
Assay in all cases: inhibition of tumour cell growth, NCI panel, 48 h
OVCAR-3 = tested on: OVCAR-3
MDA-MB-231 = tested on: MDA-MB-231
K562 = tested on: K562
U-251 = tested on: U-251
Hs-578T = tested on: Hs-578T
SF-295 = tested on: SF-295
ACHN = tested on: ACHN
NCI-H460 = tested on: NCI-H460
TK-10 = tested on: TK-10
SNB-75 = tested on: SNB-75
CCRF-CEM = tested on: CCRF-CEM
EKVX = tested on: EKVX
UACC-62 = tested on: UACC-62
HL-60 = tested on: HL-60
SF-268 = tested on: SF-268
SW-620 = tested on: SW-620
MDA-MB-435 = tested on: MDA-MB-435
NCI-H522 = tested on: NCI-H522
SNB-19 = tested on: SNB-19
PC-3 = tested on: PC-3

SMILES	GI50 (OVCAR-3)	GI50 (MDA-MB-231)	GI50 (K562)	GI50 (U-251)	GI50 (Hs-578T)	GI50 (SF-295)	GI50 (ACHN)	GI50 (NCI-H460)	GI50 (TK-10)	GI50 (SNB-75)	GI50 (CCRF-CEM)	GI50 (EKVX)	GI50 (UACC-62)	GI50 (HL-60)	GI50 (SF-268)	GI50 (SW-620)	GI50 (MDA-MB-435)	GI50 (NCI-H522)	GI50 (SNB-19)	GI50 (PC-3)
CCCCCCc1cc2cc(-c3cn4c(n3)sc3ccccc34)c(=O)oc2cc1O	> 100 µM (inactive)	> 100 µM (inactive)	> 100 µM (inactive)	> 100 µM (inactive)	> 25.1 µM (inactive)	> 100 µM (inactive)	> 100 µM (inactive)	> 100 µM (inactive)	> 100 µM (inactive)	> 78.5 µM (inactive)	> 100 µM (inactive)	99.8 µM (inactive)	2.36 µM (inactive)	> 60.3 µM (inactive)	> 100 µM (inactive)	> 78.7 µM (inactive)	3.46 µM (inactive)	> 90.4 µM (inactive)	> 100 µM (inactive)	> 100 µM (inactive)
COc1ccc2cc(C(=O)NCCCNC(=O)c3ccc4cc(OC)ccc4c3)ccc2c1	> 100 µM (inactive)	21.1 µM (inactive)	> 100 µM (inactive)	21.1 µM (inactive)	34.2 µM (inactive)	22.4 µM (inactive)	33.7 µM (inactive)	> 64.9 µM (inactive)	45.4 µM (inactive)	17.8 µM (inactive)	> 100 µM (inactive)	49.8 µM (inactive)	> 100 µM (inactive)	> 100 µM (inactive)	23.9 µM (inactive)	> 100 µM (inactive)	> 100 µM (inactive)	> 100 µM (inactive)	17.2 µM (inactive)	> 100 µM (inactive)
C=CC(Br)(CBr)CCC(Br)C(C)C (stereo not given)	4.5 µM (inactive)	4.27 µM (inactive)	2.11 µM (inactive)	3.66 µM (inactive)	2.64 µM (inactive)	4.26 µM (inactive)	8.15 µM (inactive)	4.71 µM (inactive)	3.13 µM (inactive)	1.95 µM (inactive)	0.822 µM (active)	18.3 µM (inactive)	3.12 µM (inactive)	0.769 µM (active)	5.48 µM (inactive)	2.2 µM (inactive)	5.21 µM (inactive)	1.49 µM (inactive)	9.84 µM (inactive)	7 µM (inactive)
Cc1ccc(NC(=O)/C(Cc2cc(=O)oc3cc(O)ccc23)=N\NC(=O)C[N+](C)(C)C)cc1C	> 100 µM (inactive)	> 100 µM (inactive)	> 100 µM (inactive)	> 100 µM (inactive)	> 100 µM (inactive)	> 100 µM (inactive)	> 100 µM (inactive)	> 100 µM (inactive)	> 100 µM (inactive)	> 100 µM (inactive)	> 100 µM (inactive)	> 100 µM (inactive)	> 100 µM (inactive)	> 100 µM (inactive)	> 100 µM (inactive)	> 100 µM (inactive)	> 100 µM (inactive)	> 100 µM (inactive)	> 100 µM (inactive)	> 100 µM (inactive)
CC(C)(C)OC(=O)N1CCC2(C)CC(=O)CC=C12 (stereo not given)	> 100 µM (inactive)	> 100 µM (inactive)	> 100 µM (inactive)	> 100 µM (inactive)	> 100 µM (inactive)	> 100 µM (inactive)	> 100 µM (inactive)	> 100 µM (inactive)	> 100 µM (inactive)	> 100 µM (inactive)	27.2 µM (inactive)	> 100 µM (inactive)	> 100 µM (inactive)	> 100 µM (inactive)	> 100 µM (inactive)	67 µM (inactive)	> 100 µM (inactive)	45.4 µM (inactive)	> 100 µM (inactive)	> 100 µM (inactive)
C[C@H]1O[C@@H](O[C@H]2[C@@H](O)C[C@H](O[C@H]3[C@@H](O)C[C@H](O[C@H]4CC[C@@]5(C)[C@H](CC[C@@H]6[C@@H]5CC[C@]5(C)[C@@H](C7=CC(=O)OC7)[C@@H](O)C[C@]65O)C4)O[C@@H]3C)O[C@@H]2C)C[C@H](O)[C@@H]1O [GITOXIN]	0.13 µM (active)	1.2 µM (inactive)	0.361 µM (active)	0.258 µM (active)	0.562 µM (active)	0.169 µM (active)	0.0948 µM (active)	0.132 µM (active)	0.254 µM (active)	0.703 µM (active)	0.109 µM (active)	0.164 µM (active)	0.418 µM (active)	0.116 µM (active)	0.152 µM (active)	0.258 µM (active)	0.365 µM (active)	0.0238 µM (active)	0.714 µM (active)	0.259 µM (active)
